Laboratory results: PMC8867915, “Amyloid and Hydrogel Formation of a Peptide Sequence from a Coronavirus Spike Protein” (ACS Nano, 2022)

Legend:
[1] = Rheology of peptide gel (frequency sweep of shear moduli); type: physicochemical; details: 1 wt % peptide gel at pH 4.4; cone and plate; constant stress 30 Pa; ω = 100 rad s^–1
Text: (§1) Peptide […] is able to form a hydrogel under precisely defined conditions. […] The apple-green birefringence of the peptide gel stained with Congo red (Figure 6b) together with TEM images (Figure 6c) reveal that the hydrogel comprises a tight network of 20–50 nm wide peptide nanotapes. The viscoelastic response of the gel was studied by rheology. The linear regime was first identified by strain sweep experiments (Figure S5). The elastic modulus G′ > G′′ (the shear loss modulus) and G′ is weakly dependent on frequency and reaches a value >10^5 Pa at a high frequency (ω = 100 rad s^–1). These are all characteristic rheological signatures of gels, and the high frequency value of G′ is higher than that observed for many peptide hydrogels.[48] The FTIR spectrum shown in Figure 6e is very similar to that discussed for the solutions of 1 wt % […] at pH 4 and 5 and is consistent with a β-sheet secondary structure. The SAXS data was again fitted using a model form factor of Gaussian bilayers (Figure 6f). The XRD data is characterized by strong diffraction peaks at 10 and 4.7 Å, consistent with an amyloid cross-β diffraction pattern.[12],[49]−[51] The other weaker peaks can also be ascribed to β-sheet features.[49],[52]−[57]
Dynamic shear moduli were measured using a controlled stress AR-2000 rheometer from TA Instruments. […]

[2] = Hydrogel formation (tube inversion) as a function of pH; type: physicochemical; details: 1 wt % peptide in aqueous NaOH; cloudy gel, does not flow under tube inversion; liquid at the other pH values studied (pH 3-12)
Text: as §1, with “The XRD data is characterized by strong diffraction peaks at 10 and 4.7 Å, consistent with an amyloid cross-β diffraction pattern.[12],[49]−[51] The other weaker peaks can also be ascribed to β-sheet features.[49],[52]−[57]” left out
Peptide […] was supplied by Peptide Synthetics (Peptide Protein Research Limited), Fareham, UK as a TFA salt. The molar mass by electrospray mass spectrometry is 1405.595 g mol^–1 and the purity is >95%, determined by high performance liquid chromatography (HPLC) in a gradient HPLC using an acetonitrile (0.1% TFA)/water (0.1% TFA) gradient with a Kinetex 2.6u XB-C18 100A column. […]

RSAIEDLLFDKV
shear elastic modulus G′ at high frequency [1]: > 10^5 Pa | pH at which hydrogel formation is observed [2]: 4.4 pH
